{
  "source": "patent US5026829A",
  "about": "“Cyclo substituted propyleneamine oxime and its use as a brain imaging agent” (University of Cincinnati, priority 1989, dated 1991)",
  "key": {"[1]": {"assay": "Comparative in vitro stability of 99m-Tc CB-PAO and 99m-Tc HM-PAO prepared in the same vial (HPLC)", "assay_type": "physicochemical", "conditions": "for Stabilization: CB relative to HM; for CB/HM: ratio of CB to HM percentage; for in vitro stability, in words: 13.4 hours; for percentage of 99m-Tc complex (CB or HM): same vial, HPLC", "procedure": "In order to test the in vitro stability of the 99m-Tc-CB-PAO, 99m-Tc-CB-PAOand 99m-Tc-HMPAO were prepared in the same vial. The CB-PAO and HM-PAO agents were both reacted with pertechnetate in the same vial. This insures that both compositions were subjected to the same characteristics. These were then tested using HPLC. The results showing the percentage of 99m-Tc CB-PAO (labeled CB) and 99m-Tc HM-PAO labeled HM are shown in Table 1 over a period of 0 minutes to 13.4 hours."}, "[2]": {"assay": "In vitro stability of 99m-Tc-CB-PAO after pH lowering with gentisic acid", "assay_type": "physicochemical", "conditions": "about 6mM gentisic acid solution added", "procedure": "The d,l isomer is then complexed with 99m-technetium to obtain a brain perfusion imaging agent. To formulate the 99m-Tc-d,l-CB-PAO 5ml of a ligand solution is placed into an evacuated 10 ml vial. The ligand solution contained approximately 0.5 mg/ml of ligand. One hundred and fifty microliters of a tin chloride solution containing 10 mg of tin chloride per 50 ml in water was added. Ten to one hundred microliters of 99m-pertechnetate sodium solution eluted from a molybdenum 99 generator is added to the vial and this is shaken for 10 seconds. An imaging solution can be immediately removed for use.\nHowever, it is preferable that the pH of the solution which upon addition of the stanous chloride is about 8.9 be lowered. Accordingly, gentisic acid was used to lower the pH of the complex. A solution of gentisic acid was made by dissolving 0.0303g of gentisic acid and 30ml saline. 3.0 milliliters of this solution was pipetted into another vial.\nAn additional 30ml of saline was added. This latter vial was purged with argon for 50 minutes and sealed to yield a solution of about […] in gentisic acid. 1.0-1.2ml of the above solution was added to a 10 ml evacuated vial. 2.5 milliliters of 99m-Tc-CB-PAO previously prepared is then added to this evacuated vial. This was then tested for stability. At 15 minutes, 100% of the 99m-Tc-CB-PAO remained. At 165 minutes again 100% of the 99m-Tc-CB-PAO remained. At 18 hours 98% of the 99m-Tc-CB-PAO remained."}, "[3]": {"assay": "Brain uptake, retention and tomographic brain imaging in normal human volunteers", "assay_type": "in vivo", "procedure": "(§1) In order to test the whole body biodistribution of the 99m-Tc CB-PAO tracer, three normal human volunteers were tested using single photon emission computed tomography. Whole body images were obtained at 15 minutes, two hours and five hours after an intraveneous injection of about 13 millicurries of Tc-99m d,l-CB-PAO. A dynamic study during the first ten minutes after administration of the tracer defined the time activity curve for brain uptake. The tomographic study was performed at one hour after administration. Venous blood samples were collected at various times up to five hours after administration and urine was collected up to 24 hours after administration.\nThe decrease in cerebral activity is only about 5% between 15 minutes and 2 hours after injection. Approximately 24% of the injected dose is cleared through the renal system within five hours and approximately 37% is cleared within 24 hours."}, "[4]": {"assay": "Renal clearance (urine collection) in normal human volunteers", "assay_type": "in vivo", "procedure": "as §1"}, "[5]": {"assay": "Whole body biodistribution by single photon emission computed tomography in normal human volunteers", "assay_type": "in vivo", "conditions": "intravenous, about 13 millicurries, in %", "procedure": "as §1"}, "[6]": {"conditions": "background statement; cited from earlier work"}, "[7]": {"conditions": "cited from earlier work"}},
  "data": [
    {"compound": "CC1=[N+]([O-])[99Tc-2]23(=[O])[N](CC4(CCC4)C[N]2C(C)C(C)=[N+]3O)C1C", "note": "(racemic) [99m-Tc CB-PAO]", "values": [
      {"measurement": "Stabilization", "setting": "[1]; 23 min", "result": 30, "unit": "%"},
      {"measurement": "CB/HM", "setting": "[1]; 23 min", "result": 1.85},
      {"measurement": "Stabilization", "setting": "[1]; 74 min", "result": 50, "unit": "%"},
      {"measurement": "CB/HM", "setting": "[1]; 74 min", "result": 2.04},
      {"measurement": "Stabilization", "setting": "[1]; 3.3 h", "result": 53, "unit": "%"},
      {"measurement": "CB/HM", "setting": "[1]; 3.3 h", "result": 2.11},
      {"measurement": "Stabilization", "setting": "[1]; 12.2 h", "result": 140, "unit": "%"},
      {"measurement": "CB/HM", "setting": "[1]; 12.2 h", "result": 3.29},
      {"measurement": "Stabilization", "setting": "[1]; 13.4 h", "result": 160, "unit": "%"},
      {"measurement": "CB/HM", "setting": "[1]; 13.4 h", "result": 3.58},
      {"measurement": "in vitro stability, in words", "setting": "[1]", "result": "most of the 99m-Tc CB-PAO remained"},
      {"measurement": "Stabilization", "setting": "[1]; time 0", "result": 0, "unit": "%"},
      {"measurement": "CB/HM", "setting": "[1]; time 0", "result": 1.40},
      {"measurement": "percentage of 99m-Tc complex (CB or HM)", "setting": "[1]; time 0", "result": 55.2, "unit": "%"},
      {"measurement": "in vitro stability compared with the prior art brain imaging agent, in words", "setting": "[1]; vs 99m-Tc HM-PAO", "result": "substantially more stable in vitro than the prior art brain imaging agent"},
      {"measurement": "99m-Tc-CB-PAO remaining", "setting": "[2]; 15 minutes", "result": 100, "unit": "%"},
      {"measurement": "99m-Tc-CB-PAO remaining", "setting": "[2]; 165 minutes", "result": 100, "unit": "%"},
      {"measurement": "99m-Tc-CB-PAO remaining", "setting": "[2]; 18 hours", "result": 98, "unit": "%"},
      {"measurement": "decrease in cerebral activity", "setting": "[3]; between 15 minutes and 2 hours after injection", "result": "about 5%"},
      {"measurement": "tomographic brain image quality, in words", "setting": "[3]; tomographic study at one hour after administration", "result": "good definition of cerebral structures and good distinction between grey and white matter"},
      {"measurement": "stability of brain uptake, in words", "setting": "[3]; up to five hours after injection", "result": "stable for up to five hours"},
      {"measurement": "injected dose taken up by the brain", "setting": "[3]; within the first five minutes after intravenous injection", "result": "Approximately 3.6 % of the injected dose"},
      {"measurement": "injected dose cleared through the renal system", "setting": "[4]; within 24 hours", "result": "approximately 37 % of the injected dose"},
      {"measurement": "injected dose cleared through the renal system", "setting": "[4]; within five hours, 300 min", "result": "Approximately 24 % of the injected dose"},
      {"measurement": "Whole body distribution, Bladder & Urine", "setting": "[5]; 15'", "result": "4.2 ± 1.36"},
      {"measurement": "Whole body distribution, Blood", "setting": "[5]; 15'", "result": "14.9 ± 0.79"},
      {"measurement": "Whole body distribution, Brain", "setting": "[5]; 15'", "result": "3.6 ± 0.26"},
      {"measurement": "Whole body distribution, Gallbladder", "setting": "[5]; 15'", "result": "2.2 ± 0.05"},
      {"measurement": "Whole body distribution, Liver", "setting": "[5]; 15'", "result": "26.4 ± 7.1"},
      {"measurement": "Whole body distribution, Lungs", "setting": "[5]; 15'", "result": "4.0 ± 0.85"},
      {"measurement": "Whole body distribution, Bladder & Urine", "setting": "[5]; 2h", "result": "19.4 ± 8.4"},
      {"measurement": "Whole body distribution, Blood", "setting": "[5]; 2h", "result": "8.3 ± 0.7"},
      {"measurement": "Whole body distribution, Brain", "setting": "[5]; 2h", "result": "3.5 ± 0.15"},
      {"measurement": "Whole body distribution, Gallbladder", "setting": "[5]; 2h", "result": "2.8 ± 0.7"},
      {"measurement": "Whole body distribution, Liver", "setting": "[5]; 2h", "result": "25.4 ± 7."},
      {"measurement": "Whole body distribution, Lungs", "setting": "[5]; 2h", "result": "3.1 ± 0.70"},
      {"measurement": "Whole body distribution, Bladder & Urine", "setting": "[5]; 5h", "result": "23.5 ± 2.80"},
      {"measurement": "Whole body distribution, Blood", "setting": "[5]; 5h", "result": "5.8 ± 0.45"},
      {"measurement": "Whole body distribution, Brain", "setting": "[5]; 5h", "result": "3.5 ± 0.11"},
      {"measurement": "Whole body distribution, Gallbladder", "setting": "[5]; 5h", "result": "1.7 ± 0.65"},
      {"measurement": "Whole body distribution, Liver", "setting": "[5]; 5h", "result": "22.3 ± 9.5"},
      {"measurement": "Whole body distribution, Lungs", "setting": "[5]; 5h", "result": "2.7 ± 0.72"}
    ]},
    {"compound": "C/C(=N\\O)[C@@H](C)NCC(C)(C)CN[C@H](C)/C(C)=N/O", "note": "[99m-Tc HM-PAO, 4,8,-diaza-3,6,6,9-tetramethyl undecane-2,10-dione bisoxime, metal not drawn]", "values": [
      {"measurement": "in vitro stability, in words", "setting": "[1]", "result": "most of the 99m-Tc HM-PAO had decomposed"},
      {"measurement": "percentage of 99m-Tc complex (CB or HM)", "setting": "[1]; time 0", "result": 39.5, "unit": "%"},
      {"measurement": "brain passage and retention, in words", "setting": "[6]", "result": "passes through the blood brain barrier, is theoretically altered in some way, and remains in the brain for a period of time sufficient to obtain a successful brain image"},
      {"measurement": "aqueous in vitro degradation rate, in words", "setting": "[7]; J. Nucl. Med. 1988", "result": "slow"},
      {"measurement": "time after formulation within which it must be administered", "setting": "[7]; aqueous, without stabilizer, J. Nucl. Med. 1988", "result": "≤ 30", "unit": "min"},
      {"measurement": "time after preparation within which it must be used, in words", "setting": "[7]; stabilized with gentisic acid within 30 seconds after formation", "result": "must be used within hours after preparation"}
    ]}
  ]
}
